ChEMBL document CHEMBL4706558, “Factor XII/XIIa inhibitors: Their discovery, development, and potential indications” (Eur J Med Chem, 2020)
Values belong to the molecule of their own block, whether it stands above or below them.

Experiments:
[1] = molecular target: T1, Trypsin (Homo sapiens, UniProt P07477+P07478+P35030); experiment: Inhibition of trypsin (unknown origin); assay type: protein assay
[2] = molecular target: T2, Coagulation factor XII (Homo sapiens, UniProt P00748); experiment: Inhibition of human factor 12a using chromogenic substrate by Lineweaver-Burk analysis
T2 sequence (P00748 whole entry): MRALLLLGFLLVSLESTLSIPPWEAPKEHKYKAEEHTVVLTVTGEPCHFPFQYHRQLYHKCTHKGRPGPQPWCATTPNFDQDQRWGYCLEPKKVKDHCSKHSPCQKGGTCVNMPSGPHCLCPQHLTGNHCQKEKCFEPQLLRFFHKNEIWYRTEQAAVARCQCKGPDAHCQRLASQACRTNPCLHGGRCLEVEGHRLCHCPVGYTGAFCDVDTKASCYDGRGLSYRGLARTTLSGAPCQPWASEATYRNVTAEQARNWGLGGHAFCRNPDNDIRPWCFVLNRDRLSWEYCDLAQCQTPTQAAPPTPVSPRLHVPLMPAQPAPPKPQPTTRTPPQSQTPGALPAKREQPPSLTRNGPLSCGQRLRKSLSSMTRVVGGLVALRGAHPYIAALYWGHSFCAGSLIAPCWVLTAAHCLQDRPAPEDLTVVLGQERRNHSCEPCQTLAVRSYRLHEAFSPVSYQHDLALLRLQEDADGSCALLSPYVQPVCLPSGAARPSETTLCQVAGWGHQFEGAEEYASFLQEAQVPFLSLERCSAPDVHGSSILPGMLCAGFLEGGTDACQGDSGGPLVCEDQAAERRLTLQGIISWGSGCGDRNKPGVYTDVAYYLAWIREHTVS

[3] = Inhibition of bovine trypsin using chromogenic substrate by Lineweaver-Burk analysis; set-up: species or system Bos taurus
[4] = molecular target: T2, Coagulation factor XII; experiment: Non-competitive inhibition of factor 12a (unknown origin) using BQGR as substrate
[5] = molecular target: T1, Trypsin; experiment: Competitive inhibition of trypsin (unknown origin) using BFSR as substrate; assay type: protein assay
[6] = molecular target: T2, Coagulation factor XII; experiment: Inhibition of human factor 12a using H-D-Pro-Phe-Arg-pNa as substrate by spectrophotometric method
[7] = molecular target: T2, Coagulation factor XII; experiment: Inhibition of human factor 12a
[8] = molecular target: T2, Coagulation factor XII; experiment: Inhibition of factor 12a (unknown origin)
[9] = Inhibition of bovine trypsin using BAEE as substrate by Lineweaver-Burk analysis; set-up: species or system Bos taurus

Structure (SMILES): N=C(N)Nc1ccc(C(=O)Oc2ccc3cc(C(=N)N)ccc3c2)cc1 [NAFAMOSTAT]
- Ki [2]: 0.105 µM
- Ki [3]: 0.016 µM

Structure (SMILES): N=C(N)c1ccc2cc(OC(=O)c3ccc(NC4=NCCN4)cc3)ccc2c1 [SEPIMOSTAT]
- Ki [4]: 0.021 µM
- Ki [5]: 0.097 µM

Structure (SMILES): N=C(N)NCCC[C@H](NC(=O)[C@@H]1CCCN1C(=O)[C@H](N)Cc1ccccc1)C(=O)CCl
- Ki [6]: 0.23 µM

Structure (SMILES): N=C(N)Nc1ccc(NC(=O)c2cc3cc(Cl)cc(Br)c3oc2=O)cc1
- IC50 [7]: 102 µM

Structure (SMILES): N=C(N)Nc1ccc(OC(=O)c2cc3cc(CCl)ccc3oc2=O)cc1
- IC50 [7]: 6 µM

Structure (SMILES): Cc1ccc2oc(=O)c(C(=O)Nc3ccc(N)cc3)cc2c1
- IC50 [8]: 14 µM

Structure (SMILES): Cc1ccc2oc(=O)c(C(=O)Nc3ccc(NC(=N)N)cc3)cc2c1
- IC50 [7]: 150 µM

Results, then the molecule that gave them:

- Ki [1]: 20 µM
Structure (SMILES): CCCCCCOC(=O)CCCCCNC(=N)N

- Ki [2]: 2.92 µM
- Ki [3]: 0.072 µM
Structure (SMILES): CCOC(=O)c1ccc(OC(=O)CCCCCNC(=N)N)cc1 [GABEXATE]

- Ki [1]: 0.8 µM
Structure (SMILES): N=C(N)NCCCCCC(=O)Oc1ccccc1

- Ki [9]: 58.7 µM
Structure (SMILES): CCCCCCOC(=O)CCCCCN
